Our source for the RP-LC retention time values is the METLIN SMRT retention time set (Domingo-Almenara et al. 2019).

The series in a line: gradient 5% acetonitrile 3 min, to 50% in 2 min, to 85% in 15 min, held 3 min, 100 µL/min. Particulars: column: Zorbax Extend-C18 2.1 x 50 mm; eluents: water / acetonitrile, 0.1% formic acid. The essentials:
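Retention times come from adduct peaks that were picked computationally and then checked by hand. The standards, pure and pooled in mixtures of ~100 molecules, were run on a Zorbax Extend-C18 column (2.1 × 50 mm, 1.8 μm) at 100 μL/min with water and acetonitrile, each with 0.1% formic acid. Detection was by quadrupole time-of-flight mass spectrometry in positive and negative ionization mode, with a dead volume of 40 μL and a dwell volume of 900 μL.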
Turning to `COc1ccc(-c2nc(-c3nnn(Cc4ccccc4)c3C)no2)cc1OC`, the RP-LC retention time turned out to be 959 s.

`CCCN(CC1CCOC1)C(=O)Nc1ccccc1C` (stereo not drawn): the RP-LC retention time turned out to be 768 s. Under `CN(C)c1nc(C(=O)N2CCN(c3ccc(F)cc3)CC2)nc2c1cnn2C` stands 739 s.

`O=C(CSc1nnc(-c2ccncc2)o1)Nc1cccc([N+](=O)[O-])c1`: the RP-LC retention time was 669 s. As for `O=C([C@@H]1C[C@H](F)CN1C(=O)c1cc(F)ccc1F)N1CCCCC1`, the RP-LC retention time was determined as 700 s.

On to `O=C(NC(c1ccccc1)c1ccccc1)N1CCN(CC(F)(F)F)CC1`, for which the RP-LC retention time amounted to 886 s.

Consider `c1ccc(N2CCN(Cc3nc(-c4ccc(N5CCOCC5)nc4)no3)CC2)cc1`, for which the RP-LC retention time amounted to 772 s. Under `COCCCNC(=O)c1ccc2c(c1)nc(C)n2-c1ccc(Br)cc1` stands 629 s. `CCCNS(=O)(=O)c1cc(-c2nc(C)cs2)n(CC(=O)N2CCCCC2)c1` showed an RP-LC retention time of 869 s. Under `c1ccc(-c2nnc3nc(N4CCCCC4)nc(N4CCCCC4)n23)cc1` stands 1260 s; under `O=C(CC1CCN(S(=O)(=O)c2ccc(Cl)s2)CC1)NCCc1c[nH]c2ccccc12`, 945 s; under `O=C(NC1CC1)c1ccc2c(c1)CCCN2S(=O)(=O)c1ccccc1`, 804 s.

Turning to `COc1ccc(C(=O)N2CCC3(C2)C(=O)Nc2ccc(OC)cc23)cc1` (stereo not drawn), the RP-LC retention time turned out to be 683 s. Under `Cc1cc(C)n2nc(CN(C(=O)c3cccs3)c3ccc(F)cc3)nc2n1` stands 779 s; under `COc1ccccc1-c1noc(Cn2c(=O)n(-c3cccc(F)c3)c(=O)c3sccc32)n1`, 880 s. Molecule `COc1ccccc1N1CCN(CC(O)c2ccc3c(c2)OCO3)CC1` (stereo not drawn) registered an RP-LC retention time of 631 s. `CC1(C)COc2ccc(NC(=O)CN3C(=O)c4ccccc4C3=O)cc2NC1=O` returned an RP-LC retention time of 738 s. Under `O=C(NCCN1CCCCC1)c1cc2n(n1)CCCN(Cc1ccc(Cl)cc1)C2=O` stands 642 s; under `O=C(CCCSc1ccc(NC(=O)C2CC2)nn1)NCc1ccccc1Cl`, 754 s; under `Cc1ccc(CNC(=O)c2nc(-c3ccnc(N4CCCCC4)c3)no2)o1`, 756 s.

With `CCCCS(=O)(=O)c1cc2c(cc1NC(=O)c1ccc(Br)cc1)n(C)c(=O)n2C`, the RP-LC retention time was 1020 s.

With `CCS(=O)(=O)c1cccc(C(=O)Nc2nnc(-c3ccsc3)o2)c1`, the RP-LC retention time came out at 662 s. Under `Cc1cc2nn(CC(=O)N3CCC(C)CC3)c(=O)n2c(Nc2ccc(C)c(C)c2)n1` stands 941 s; under `O=C(CSc1ncnc2ccccc12)NCCc1ccccc1`, 706 s.

In turn, `Cc1c(Cl)cccc1S(=O)(=O)N1CCc2nc(-c3ccc(F)cc3)ncc2C1` displayed an RP-LC retention time of 1250 s.

In turn, `Cc1ccccc1CNC(=O)C1(C)CCN(S(=O)(=O)c2ccc(Br)s2)CC1` showed an RP-LC retention time of 1050 s. Regarding `CCc1ccc(-c2cc3c(=O)n(Cc4noc(CN5CCCC(C)C5)n4)ccn3n2)cc1` (stereo not drawn), the RP-LC retention time came out at 726 s. Consider `COc1ccc(C)c(N2C(=O)CC(N3CCC(C(N)=O)CC3)C2=O)c1` (stereo not drawn), for which the RP-LC retention time was determined as 586 s. Under `CCOc1ccccc1NC(=O)Cn1cnc2nc(N3CCCC(C(=O)NC(C)C)C3)sc2c1=O` (stereo not drawn) stands 743 s; under `CCN1CCCC(Cn2cc(COc3ccc4c(c3)CCC4)nn2)C1` (stereo not drawn), 679 s.

`COc1ccc(C(C)NC(=O)C2CCCN(c3nccnc3Sc3ccc(C)cc3)C2)cc1` (stereo not drawn) came in with an RP-LC retention time of 1090 s.

Molecule `Cc1ccc2c(c1)N(Cc1ccccc1)N=C(C(=O)N1CCOCC1)S2(=O)=O` yielded an RP-LC retention time of 832 s.

`COCCNc1nc(-c2ccc(OC)cc2)nc2ccccc12` had an RP-LC retention time of 644 s. Under `COc1ccc(-c2nnc(-c3ccc(Cl)c(S(=O)(=O)N4CCCCCC4)c3)o2)cc1` stands 1210 s; under `COc1ccc(C2C(C(=O)N3CCCC(C)C3)c3cc(OC)c(OC)cc3C(=O)N2C)cc1` (stereo not drawn), 817 s. As to `Cc1ccc(-c2noc(Cn3c(=O)n(Cc4ccc5c(c4)OCO5)c(=O)c4sccc43)n2)cc1C`, the RP-LC retention time is 1180 s.

On to `CCC(C)NC(=O)C1CCCN(C(=O)c2[nH]c(C)c(C(=O)OC(C)C)c2C)C1` (stereo not drawn), for which the RP-LC retention time was 774 s. For the molecule `COc1ccc(-c2nnc(-c3ccccc3Cl)o2)cc1S(=O)(=O)N1CCCCC1`, the RP-LC retention time was 1060 s.

In the case of `CN(C)CCNC(=O)c1ccc(CS(=O)(=O)c2c(Cl)cccc2Cl)o1`, the RP-LC retention time was 595 s. Molecule `COc1ccc(NC(=O)CN2c3ccc(F)cc3-c3ccccc3S2(=O)=O)c(OC)c1` displayed an RP-LC retention time of 975 s.

In turn, `CN(Cc1ccccc1)Cc1cc(=O)n2cc(Cl)ccc2n1` gave an RP-LC retention time of 608 s. With `Cc1cc(NC(=O)c2[nH]c(C)c(S(=O)(=O)N3CCCCC3)c2C)ccc1Br`, the RP-LC retention time amounted to 1110 s. In turn, `COc1ccc(-c2nnc(Cc3nc(-c4ccccc4C)no3)o2)cc1` registered an RP-LC retention time of 1010 s. `CCn1ccc2cc(S(=O)(=O)N3CCCC(C(=O)NCCCOC)C3)ccc21` (stereo not drawn) showed an RP-LC retention time of 804 s. As for `CCN(CC)CCNC(=O)C1CCN(c2nccnc2Sc2ccccc2)CC1`, the RP-LC retention time came out at 657 s.

`COc1cccc(-c2nc3cnccn3c2NCCC(=O)NC2CCCCCC2)c1` showed an RP-LC retention time of 755 s. For the molecule `Cc1nc([C@@H]2CN(C(=O)c3cc(C4CC4)[nH]n3)C[C@H]2C(N)=O)n[nH]1`, the RP-LC retention time came out at 540 s.

Turning to `Cc1ccc(NC(=O)CN2C(=O)CCc3cc(S(=O)(=O)N4CCCCC4C)ccc32)cc1F` (stereo not drawn), the RP-LC retention time stood at 1010 s. `CCn1c(=O)c2cc(C(=O)Nc3cccc(C(=O)OC)c3)nn2c2ccccc21` had an RP-LC retention time of 977 s.

In turn, `Cc1cc(C)n(CC(=O)NCCc2c[nH]c3ccccc23)c(=O)n1` had an RP-LC retention time of 570 s. For the molecule `CC1CCN(c2cc(-n3cnc(C(=O)NCC4CCCO4)c3)ncn2)CC1` (stereo not drawn), the RP-LC retention time is 819 s.

In turn, `CC(C)n1c(CCNC(=O)c2ccc(F)cc2)nc2cccnc21` came in with an RP-LC retention time of 656 s. In turn, `COc1ccc(-c2nnc(N3CCC(C(=O)NCCN4CCCC4)CC3)o2)cc1` gave an RP-LC retention time of 590 s. Molecule `CCc1nnc(-c2cc(C)n(CC(=O)Nc3cc(OC)cc(OC)c3)c2C)o1` came in with an RP-LC retention time of 807 s.

`O=C(NC(c1ccccc1)c1nnc(N2CCOCC2)o1)c1cccc(F)c1` (stereo not drawn) returned an RP-LC retention time of 758 s. `COc1ccc(NC(=O)N2CCC(c3nc(C(=O)N(C)C)c(C)o3)CC2)cc1` returned an RP-LC retention time of 676 s.

On to `Cc1nn(-c2ccccc2)c(C)c1S(=O)(=O)N1CCN(c2ccccn2)CC1`, for which the RP-LC retention time amounted to 664 s. As for `O=C1CSc2ccc(S(=O)(=O)N3CCN(c4ccccn4)CC3)cc2N1`, the RP-LC retention time came to 604 s.

`Cc1cccc(N2CCN([C@H]3CS(=O)(=O)C[C@@H]3S(=O)(=O)c3ccc(F)cc3)CC2)c1` gave an RP-LC retention time of 941 s. In turn, `O=C1CCCC2=C1C(c1ccccc1Cl)C1=C(CCCC1=O)O2` gave an RP-LC retention time of 812 s. Under `CCC(C)NC(=O)C(=O)NCc1n[nH]c(=O)c2ccccc12` (stereo not drawn) stands 649 s; under `Cn1ncc2c(N3CCSCC3)nc(C(=O)NCc3cccnc3)nc21`, 570 s; under `CC(C)CC(=O)N1CCc2c([nH]c3ccccc23)C12C(=O)N(C)c1ccc(Br)cc12` (stereo not drawn), 1040 s. Under `Cc1nn(-c2ccccc2)c(C)c1S(=O)(=O)N1CCC(C(=O)Nc2cccc(C#N)c2)CC1` stands 958 s.

`CN(C)C(=O)c1ccc2c(c1)nnn2CCNC(=O)Nc1cccc(Br)c1` returned an RP-LC retention time of 678 s. Molecule `Cc1ccc(CNC(=O)c2nnc(-c3ccc(S(=O)(=O)N4CCCC4)cc3)o2)o1` displayed an RP-LC retention time of 852 s. `Cc1c(Cl)cccc1NC(=O)C1CCCN(c2nnc(C)c3c(C)n(-c4ccccc4)nc23)C1` (stereo not drawn) showed an RP-LC retention time of 784 s. Regarding `CN(CCc1noc(-c2ccc(F)cc2)n1)C(=O)Nc1cc(F)ccc1F`, the RP-LC retention time amounted to 924 s. `CCCS(=O)(=O)N1CC(=O)N(c2ccc(F)cc2)C(C)(C(=O)NC2CCCCCC2)C1` (stereo not drawn) yielded an RP-LC retention time of 938 s. Under `COc1ccc(CNC(=O)C2CCN(C(=O)c3nn(C)c4c3CN(C(=O)C(C)C)CC4)CC2)cc1` stands 662 s; under `Cc1cc(-c2cc(S(=O)(=O)N3CCN(C4CCCCC4)CC3)c(C)s2)n[nH]1`, 657 s; under `CCN(CC)C(=O)c1ccc2c(c1)nnn2CCNC(=O)Nc1ccc(Br)cc1F`, 787 s. `CCCNC(=O)C1CCN(c2ccc(SCC(=O)NCc3cc(F)cc(F)c3)nn2)CC1` gave an RP-LC retention time of 626 s. Take `O=C(Nc1nccs1)C1CCN(S(=O)(=O)c2cc(C(=O)N3CCOCC3)cs2)CC1`: the RP-LC retention time is 680 s.

`O=C(Nc1ccccc1Br)N1CCN(CCn2c(C(F)(F)F)nc3cccnc32)CC1`: the RP-LC retention time was found to be 657 s. Molecule `CCCn1nnc(NCc2ccc(-c3ccc(Br)cc3Cl)o2)n1` showed an RP-LC retention time of 1230 s.

Regarding `COc1ccc(-c2nnc3n2CCN(Cc2cnn(C)c2C)C3)cc1`, the RP-LC retention time amounted to 583 s. On to `Cn1ccnc1C(=O)N1CCCCCCNC(=O)[C@@H]2CCCC[C@@H]21`, for which the RP-LC retention time is 627 s.
